Results taken from patent US20090252754A1, “Vaccines containing the hiv tat protein as an adjuvant for the enhancement of cytotoxic t-cell responses” (priority 2003, published 2009).

Legend:
[1] = test system: proteasome subunits (α2, LMP2, LMP7, MECL1) in Jurkat cells; assay: Western blot of proteasome subunits in Jurkat cells expressing or treated with Tat, Tat mutants or Tat peptides; assay type: cell-based, human
Description: Jurkat T cells expressing Tat or mutated Tat (referred to as Tat22, wherein a Cys at position 22 is mutated) have previously been described (1). Cells were cultured in a medium supplemented with 800 μg/ml neomycin (Sigma, St. Louise, […].).
(§1) Cells were lysed with glass beads as previously described (4). Supernatants were ultracentrifuged for 1 h at 100,000 g and loaded into an affinity column containing a matrix derivatised with the MCP21 mAb specific for the α2 subunit of the proteasome (Affinity, Exeter, UK). Proteasomes were eluted with 25 mM Tris-HCl pH 7.5 containing 2 M NaCl, and 0.5 ml fractions were collected. Homogeneity of the eluted material was confirmed by analysis of an aliquot by SDS 12% PAGE and Coomassie blue staining of the gel. Fractions containing proteasomes were combined and dialysed against 25 mM Tris-HCl pH 7.5. Protein concentration was determined using the BCA method (Pierce Chemical, Rockford, Ill.).
Equal amounts of proteins, or equal amounts of purified proteasomes, were loaded on a 12% SDS-PAGE and electro-blotted onto Protran nitrocellulose membranes (Schleicher & Schuell, Keene, Hampshire, USA). Blots were probed with Abs specific for α2, LMP2 LMP7, MECL1, and PA28α subunits (Affinity), and developed by enhanced chemi-luminescence (ECL, Amersham Pharmacia Biotech, Uppsala, SW).

[2] = test system: proteasomes purified from MIN and MON LCL's; assay: Enzyme assays of proteasomes purified from LCL's (Suc-LLVY-AMC, Boc-LRR-AMC, Ac-YVAD-AMC); assay type: biochemical, human
Description: Cells (5×10^7) were washed in cold PBS and resuspended in buffer containing 50 mM Tris-HCl pH 7.5, 5 mM MgCl2, 1 mM dithiothreitol (DTT, Sigma), 2 mM ATP, 250 mM sucrose. Glass beads equivalent to the volume of the cellular suspension were added and cells were vortexed for 1 min at 4° C. Beads and cell debris were removed by 5 minutes centrifugation at 1000×g, followed by 20 minutes centrifugation at 10,000×g. Supernatants were ultracentrifuged for 1 hour at 100,000×g^44. Supernatants were loaded into an affinity column containing an agarose matrix derivatised with the MCP21 mAb specific for the α2 subunit of the proteasome (Affinity, Exeter, UK). […] Protein concentration was determined using BCA protocol (Pierce Chemical).
The fluorogenic substrates Suc-LLVY-AMC, Boc-LRR-AMC and Ac-YVAD-AMC were used to measure chymotrypsin-like, trypsin-like and post-acidic proteasome activities, respectively. […] Fluorescence was determined by a fluorimeter (Spectrafluor plus, Tecan, Salzburg, Austria) using an excitation of 360 nm and emission of 465 nm. Proteasome activity is expressed in arbitrary fluorescence units^11.
To investigate whether the differences in subunit composition detected by Western blot analysis correlated with differences in enzymatic activity, we analysed the cleavage specificity of equal amount of proteasomes isolated from MIN-Tat and MON-Tat cells or control cells. […]

[3] = test system: proteasomes purified from Jurkat cells; assay: Enzymatic assays of proteasomes purified from Jurkat cells treated with Tat; assay type: biochemical, human; conditions: proteasomes from Jurkat cells treated for 24 h with 1 μg/ml Tat protein vs control cells
Description: as §1
The chymotrypsin-like, trypsin-like and post-acidic activities of purified proteasomes were tested using the fluorogenic substrates Suc-LLVY-AMC, Boc-LRR-AMC and Ac-YVAD-AMC, respectively, as previously described (4). Fluorescence was determined by a fluorimeter (Spectrafluor plus, Tecan, Salzburg, Austria). Proteasome activity is expressed as arbitrary fluorescence units.
To investigate whether the differences in subunit composition correlated with differences in enzymatic activity, we analysed the cleavage specificity of equal amounts of proteasomes purified from Jurkat cells treated for 24 h with 1 μg/ml Tat protein or from control cells. […]

[4] = test system: MIN and MON LCL's (EBV IVT, AVF, YLQ, CLG epitopes); assay: Cytotoxicity assay of EBV epitope-specific CTLs against LCL targets
Description: HLA A11-restricted EBV-specific CTL cultures reacting against the EBNA4-derived [sequence] (SEQ ID NO 280) (IVT) and [sequence] […] (SEQ ID NO 282) (CLG) epitope, corresponding to amino acid 426-434^28, and the Lmp1-derived [sequence] […] The first stimulation was performed in RPMI 1640 medium containing 10% FCS. A second and a third stimulation were performed in the same conditions on day 7 and day 14. Starting from day 8 the medium was supplemented with 10 U/ml rIL-2 (Chiron, Milan, Italy).
Target cells were labelled with Na2^51CrO4 for 90 min at 37° C. Cytotoxicity tests were routinely run at different effector: target ratios in triplicate. Percent specific lysis was calculated as 100×(cpm sample−cpm medium)/(cpm Triton X-100−cpm medium)^27. Spontaneous release was always less than 20%.
To this purpose, the HLA-2 and -A11 positive MIN LCL and the HLA-A2 positive MON LCL, transduced or not with Tat, were tested as target in cytotoxic assays using CTL cultures specific for the IVT, AVF, CLG and YLQ epitopes (FIG. 6).

[5] = endogenous expression of Tat in Jurkat cells
[6] = LCL expressing endogenous Tat vs empty vector
[7] = MIN LCL treated with 0.1 μg/ml Tat protein for 24 hours vs untreated

Tat: HIV-1 Tat protein from HTLV type IIIB isolate, expressed in E. Coli or endogenously in cells; wild type SEQ ID NO 284
LMP2 expression in total cell lysates ([1]; Jurkat cells treated for 24 h with 0.1 μg/ml): induced down-regulation
expression of LMP2 subunit from purified proteasomes ([1]; Jurkat cells, exogenous native Tat, 24 h, 0.1-1 μg/ml): maximal down-modulation
expression of LMP2 [1, 5]: down-regulation
expression of LMP7 [1, 5]: up-regulation
expression of MECL1 [1, 5]: up-regulation
three proteolytic activities of proteasomes ([2]; proteasomes from MIN and MON LCL's treated with 0.1 μg/ml of Tat (data not shown)): increase of all three proteolytic activities
chymotryptic-like, tryptic-like and post-acidic activities of proteasomes ([2]; proteasomes from MIN-Tat and MON-Tat cells vs control cells): higher
chymotryptic-like, tryptic-like and post-acidic activities [3]: all augmented
IVT- and AVF-specific CTL killing [4, 6]: decrease
YLQ- and CLG-specific killing [4, 6]: increase
lysis by YLQ- and CLG-specific CTLs [4, 7]: lysed at higher efficiency
sensitivity to IVT- and AVF-specific CTL killing [4, 7]: less sensitive
